Legend:
[1] = timed administration; cited from earlier work
[2] = two-week treatment of C57BL/6 ob/ob mice (body weight, fat and lean body mass, food consumption, blood glucose, serum free fatty acids); assay type: in vivo, C57BL/6 ob/ob mice (lacking a functional leptin protein); conditions: two weeks
Experimental: Different groups (8 mice per group) of 4-8 week old C57BL/6 ob/ob mice (lacking a functional leptin protein) were treated with:
1) vehicle at 1 and 11 hours after light onset (HALO);
2) Buspirone ("Busp"; a 5HT1A agonist) (3 mg/kg) at 11 HALO;
3) DOI (a 5HT2 agonist) (8 mg/kg) at 11 HALO;
4) RU24969 ("RU") (5HT1B agonist) (3 mg/kg) at 11 HALO;
5) bromocriptine ("BC") (12 mg/kg BW) at 1 HALO;
6) BC (12 mg/kg) at 1 HALO plus Buspirone (3 mg/kg) at 11 HALO;
7) BC (12 mg/kg) at 1 HALO plus DOI (8 mg/kg) at 11 HALO;
8) BC (12 mg/kg) at 1 HALO plus RU (3 mg/kg) at 11 HALO;
9) SKF38393 ("SKF") (D1 agonist) (20mg/kg BW) at 1 HALO; and
10) SKF(20 mg/kg) at 1 HALO plus RU (3 mg/kg) at 11 HALO for two weeks. Animals were held on 12-hour daily photoperiods and allowed to feed ad libitum. Food consumption was monitored daily for 3 days before the initiation of treatment throughout the 14-day treatment period. Animals were sacrificed between 1 and 3 HALO on the day following the final treatment and plasma was collected for the analyses of insulin, glucose, and lipids while the carcasses were solubilized in ethanolic KOH and analyzed for protein and lipid content. Blood glucose was measured with an Accu-Chek Advantage glucose meter (Boehringer). Serum insulin was measured with a radioimmunoassay kit (Linco Research) using rat insulin standards. Total triglycerides and free fatty acids were measured with kits from Sigma Diagnostics and Wako Chemicals, respectively. Body weight gain or loss as a result of treatment is depicted in FIG. 1. Fat body mass is depicted in FIG. 2.

[3] = cited from earlier work
[4] = in vivo; cited from earlier work
[5] = cited from earlier work; remark: listed apart in the source

Row | SMILES | body fat stores / fat body mass (effect in words) [2] | body weight gain (effect in words) [2] | food intake / food consumption (effect in words) [2] | further results
1 | CC(C)C[C@H]1C(=O)N2CCC[C@H]2[C@]2(O)O[C@](NC(=O)[C@@H]3C=C4c5cccc6[nH]c(Br)c(c56)C[C@H]4N(C)C3)(C(C)C)C(=O)N12 [Bromocriptine, 2-bromo-alpha-ergocriptine] | ineffective | ineffective | ineffective | body fat stores (effect in words) [1]: reduce body fat stores; food consumption (effect in words) [1]: without a concomitant reduction in food consumption; hyperinsulinemia, hyperlipidemia, and glucose intolerance (effect in words) [1]: reduce hyperinsulinemia, hyperlipidemia, and glucose intolerance; locomotor stimulation and stereotyped behavior responses ([3]; after depletion of endogenous dopamine): blocked by depletion of endogenous dopamine; responsiveness in dopamine depleted animals given a D1 dopamine receptor agonist ([3]; dopamine depleted animals plus D1 agonist): restored
2 | O=C1CC2(CCCC2)CC(=O)N1CCCCN1CCN(c2ncccn2)CC1 [Buspirone] | ineffective | ineffective | ineffective | –
3 | COc1cc(CC(C)N)c(OC)cc1I (stereo not drawn) [DOI] | ineffective | ineffective | ineffective | –
4 | COc1ccc2[nH]cc(C3=CCNCC3)c2c1 [RU] | – | significant decrease | significant decrease | –
5 | Oc1cc2c(cc1O)C(c1ccccc1)CNCC2 (stereo not drawn) [SKF] | – | significant decrease | significant decrease | –
6 | CCOC(=O)C(C)(C)Oc1ccc(Cl)cc1 [clofibrate] | – | – | – | side effects [4]: nephrotic syndromes, myalgia, nausea, and abdominal pain
7 | CC[C@H](C)C(=O)O[C@H]1C[C@@H](C)C=C2C=C[C@H](C)[C@H](CC[C@@H]3C[C@@H](O)CC(=O)O3)[C@H]21 [lovastatin] | – | – | – | total cholesterol (effect in words) ([5]; in vivo): reduces total cholesterol; increase in HDL concentrations ([5]; lovastatin (MEVACOR)): 5-10%

From patent US5877183A, “Treatment of lipid and glucose metabolism disorders with dopamine and serotonin agonists” (Ergo Research Corporation, priority 1997, dated 1999)
